How the values were obtained:
EL3187 (lung) PDX = test: Anti-tumor growth activity, EL3187 patient-derived xenograft (PDX) model; format: in vivo, mouse
Method: (§1) For xenograft models of H1373, HCC44, MiaPaca-2, SW1463, KYSE-410 and UM-UC-3, typically 5-10×10^6 cells in a 1:1 matrigel mix (0.2 mL total volume) are implanted by subcutaneous injection in hind leg of nude mice. Generally, a total of 4 mice each group are used for efficacy study. Treatment is initiated with oral administration (gavage) of testing compound or vehicle (20% captisol, 25 mM phosphate, pH2.0) in 0.2 mL volume when tumor size reaches approximately 200-300 mg. Tumor growth and body weight are monitored over time to evaluate efficacy and signs of toxicity. For EL3187 PDX model, frozen vials containing tumor fragments are thawed at 37° C. in a water bath. The tumor fragments are transferred to 50 mL Falcon tube and the ice cold DMEM medium is slowly added into the tube to a total volume of 35 mL. Then the tumor fragments are centrifuged at 130×g for 2 minutes at 4° C. and supernatant is aspirated. This washing step is repeated twice and the tumor fragments are resuspended in 10 mL DMEM for implantation into athymic nude-Foxn1nu mice (Envigo RMS, Inc., Mount Comfort, Indiana). Once tumor volumes reach 800 to 1000 mm^3, animals are sacrificed and tumors are harvested using aseptic technique. Fresh tumors are cut into 10 to 15 mm^3 fragments and placed into cold Gibco hibernate medium. The tumor fragments are subcutaneously implanted into animals with a 10 g trochar needle. When tumor size reaches 200 to 300 mm^3, the animals are randomized for compound treatment.
(§2) Among models listed in Table 31, EL3187 is a patient-derived xenograft (PDX) model, and all other are tumor xenograft models.

pERK = test: In vivo pharmacodynamic effect, pERK Meso Scale Discovery ELISA of tumor lysates, pancreatic cancer MiaPaca-2 xenograft model; details: Mus musculus, MIA PaCa-2, MiaPaca-2 model; for inhibition at 5 mg/kg: single dose 5 mg/kg; for inhibition at 10 mg/kg: single dose 10 mg/kg; for inhibition at 30 mg/kg: single dose 30 mg/kg
Method: The purpose of these assays is to evaluate in vivo target inhibition of an orally administered test compound. Human lung cancer H358 cells, or pancreatic cancer MiaPaca-2 cells, are implanted into nude mice xenograft tumor models. H358 or MiaPaca-2 cells (10×106 in a 1:1 Matrigel® mix, 0.2 mL total volume) are implanted by subcutaneous injection in hind leg of nude female mice (Harlan Laboratories). A total of 3-4 mice in each group are used for target engagement and PD study. Treatment is initiated with oral administration (gavage) of a test compound or vehicle (20% Captisol®, 25 mM phosphate, pH 2.0 in 0.2 mL) when the tumor size reaches approximately 300 mg.
For in vivo target inhibition and PD analysis, tumors are ground by mortar and pestle on dry ice and tumor fragments are added to 800 μL of lysis buffer containing 1% Triton™ X-100, 25 mM Tris pH7.5, 150 mM sodium chloride, 1 mM EDTA, and 1 mM EGTA with Halt protease and phosphatase inhibitor cocktail (Thermo Scientific, cat. no. 1861281) in lysing matrix D tubes (MP Biomedical®, cat. no. 6913-500) with one additional large bead (MP Biomedical® ¼″ ceramic sphere bead cat. no. 6540-412) per tube. Tumor fragments are homogenized in a Thermo Bio101® fast prep (FP120) at setting 4 for […] while cold for a total of 2 times. Lysates are spun at 14,000 rpm for 10 minutes at 4° C. to clarify. Protein estimation is done on the lysate supernatant using a BioRad Dc® protein assay and lysates are diluted in complete lysis/binding buffer from the Ras GTPase Chemi ELISA Kit® (Active Motif, cat. no. 52097). The active KRas ELISA is performed as follows: glutathione-coated ELISA wells are incubated with diluted RAF1-GST in complete lysis/binding buffer for 1 hour at 4° C. with gentle agitation. Wells are washed 3 times with wash buffer and 100 μg of lysates are added to each well and incubated at ambient temperature for 1 hour with mild agitation. The wells are washed an additional 3 times, then primary antibody, diluted in antibody binding buffer, is added to each well. The plates are incubated for 1 hour. The wells are washed 3 more times before adding HRP-conjugated secondary antibody, diluted in antibody binding buffer, to each well. The plates are incubated at ambient temperature for 1 hour. ELISA wells are washed 4 times, chemiluminescent reagent is added and then luminescence is read. For pERK Meso Scale Discovery ELISA, 25 μg of protein containing 0.1% SDS is used; Meso Scale Discovery Whole Cell Lysate Kit for pERK is provided by Meso Scale Discovery.
The purpose of this assay is to evaluate the does and time dependent in vivo target inhibition and pharmacodynamic effects in a pancreatic cancer model. The compound of Examples 35 is dosed at 5, 10 or 30 mg/kg in a time course experiment. After a single dose, the tumor samples are harvested at 2, 4, 8, 12 and 24 hours post doing. The tumor lysates are prepared and the inhibition of pERK and active KRas is measured as described above.

H1373 (lung) xenograft = test: Anti-tumor growth activity, H1373 xenograft model; format: in vivo, mouse
Method: as §1, with “Generally, a total of 4 mice each group are used for efficacy study.” left out
as §2

Compound: C=CC(=O)N1CCN2C(=O)c3cc(F)c(-c4ccc(F)c5sc(N)c(C#N)c45)c(Cl)c3OCC[C@H]2C1 [Example 35, 4-[(13aS)-10-Chloro-8-fluoro-6-oxo-2-prop-2-enoyl-1,3,4,12,13,13a-hexahydropyrazino[2,1-d][1,5]benzoxazocin-9-yl]-2-amino-7-fluoro-benzothiophene-3-carbonitrile]
- tumor growth inhibition (%) or regression (−%) (EL3187 (lung) PDX; 1 mg/kg BID × 28, oral): 89.2%
- tumor growth inhibition (%) or regression (−%) (EL3187 (lung) PDX; 1 mg/kg QD × 28, oral): 52%
- tumor growth inhibition (%) or regression (−%) (EL3187 (lung) PDX; 3 mg/kg BID × 28, oral): −91%
- tumor growth inhibition (%) or regression (−%) (EL3187 (lung) PDX; 3 mg/kg QD × 28, oral): −39.8%
- tumor growth inhibition (%) or regression (−%) (EL3187 (lung) PDX; 10 mg/kg BID × 28, oral): −96%
- tumor growth inhibition (%) or regression (−%) (EL3187 (lung) PDX; 10 mg/kg QD × 28, oral): −96%
- inhibition at 5 mg/kg (pERK; 2 hours): 51%
- inhibition at 5 mg/kg (pERK; 4 hours): 50.9%
- inhibition at 5 mg/kg (pERK; 8 hours): 59%
- inhibition at 5 mg/kg (pERK; 12 hours): 47.4%
- inhibition at 5 mg/kg (pERK; 24 hours): -30.2%
- inhibition at 10 mg/kg (pERK; 2 hours): 68.5%
- inhibition at 10 mg/kg (pERK; 4 hours): 58.5%
- inhibition at 10 mg/kg (pERK; 8 hours): 57.6%
- inhibition at 10 mg/kg (pERK; 12 hours): 49%
- inhibition at 10 mg/kg (pERK; 24 hours): -14.9%
- inhibition at 30 mg/kg (pERK; 2 hours): 59.5%
- inhibition at 30 mg/kg (pERK; 4 hours): 58.7%
- inhibition at 30 mg/kg (pERK; 8 hours): 54.3%
- inhibition at 30 mg/kg (pERK; 12 hours): 58.4%
- inhibition at 30 mg/kg (pERK; 24 hours): 15.6%
- tumor growth inhibition (%) or regression (−%) (H1373 (lung) xenograft; 5 mg/kg BID × 28, oral): −26.3%
- tumor growth inhibition (%) or regression (−%) (H1373 (lung) xenograft; 10 mg/kg BID × 28, oral): −49%
- tumor growth inhibition (%) or regression (−%) (H1373 (lung) xenograft; 10 mg/kg QD × 28, oral): −21.3%
- tumor growth inhibition (%) or regression (−%) (H1373 (lung) xenograft; 30 mg/kg QD × 28, oral): −49.7%

— patent US20230339968A1, “KRAS Gl2C INHIBITORS” (Eli Lilly and Company, priority 2019, published 2023)
